For data set [1], the system named is F21T (DNA, G4) GGGTTAGGGTTAGGGTTAGGG
Kind of data set: FRET melting. To be noted: 10 mM K+, 90 mM Li+; 10 mM lithium cacodylate pH 7.2; 2 µM compound, 0.2 µM oligonucleotide.

Data set [2] has as its system FtrypBT (FEBR1T; FtryBT) (DNA, G4) GGGCAGGGGGTGATGGGGAGGAGCCAGGG
Kind of data set: FRET melting. To be noted: 10 mM K+, 90 mM Li+; 10 mM lithium cacodylate pH 7.2; 2 µM compound, 0.2 µM oligonucleotide.

Data set [3] deals with FPf8T (DNA, G4) GGGTTCAGGGTTCAGGGTTCAGGG
Kind of data set: FRET melting. To be noted: 10 mM K+, 90 mM Li+; 10 mM lithium cacodylate pH 7.2; 2 µM compound, 0.2 µM oligonucleotide.

The subject of data set [4] is FPf1T (DNA, G4) GGGTTTAGGGTTTAGGGTTTAGGG
Description: FRET melting. To be noted: 10 mM K+, 90 mM Li+; 10 mM lithium cacodylate pH 7.2; 2 µM compound, 0.2 µM oligonucleotide.

For data set [5], the system named is T. brucei brucei AnTat 1.9. Kind of data set: In vitro antitrypanosomal activity, Alamar Blue assay. It counts as cell-based. To be noted: Trypanosoma brucei; slender bloodstream trypomastigotes, AnTat 1.9 strain; read-out: Trypanosoma brucei brucei IC50 values, Trypanos Antat 1.9. In short, it runs like this: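 Viability read-out: resazurin (Alamar Blue) fluorescence, 530 nm excitation/590 nm emission, after 5 h dye exposure following 69 h compound incubation at 37 °C, 5% CO2, 2000 parasites per well, doses in duplicate. IC50 values fitted nonlinearly, three independent runs.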
For orientation: Resazurin is reduced to fluorescent resorufin, in cell work by metabolically active cells.

Data set [6] concerns L. donovani (MHOM/IN/00/DEVI) promastigotes. Description: In vitro antileishmanial activity, MTT assay on promastigotes. To be noted: Leishmania donovani, 72 h incubation, ≥10 = no activity noted at the highest concentration tested. The data set is classed as cell-based. In short, it runs like this:
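Log-phase L. donovani MHOM/IN/00/DEVI promastigotes (10^6/ml, Schneider's + 20% FCS) were exposed to graded compound concentrations (DMSO <0.5% v/v) for 72 h at 27 °C, in duplicate. Growth measured by MTT reduction (4 h, A570 nm); IC50 obtained by regression.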
(Tetrazolium dyes change colour on reduction, which living cells bring about.)

In data set [7] the test system is human HepG2 cells. Description: Cytotoxicity evaluation, MTT. It counts as cell-based. To be noted: HepG2 cells; 72 h. A digest of the protocol: (§1)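 HepG2 hepatocarcinoma cells exposed to compound in duplicate, then viability measured by MTT reduction (0.5 mg/ml), formazan dissolved in DMSO and read at 570 nm against 630 nm. Viability expressed as percent of untreated cells; CC50 taken from dose-response curve, doxorubicin as positive control.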

The subject of data set [8] is FdxT (DNA, duplex, hexaethylene glycol linker between nucleotides 10 and 11) TATAGCTATATATAGCTATA
Description: FRET melting. To be noted: 10 mM K+, 90 mM Li+; 10 mM lithium cacodylate pH 7.2; 2 µM compound, 0.2 µM oligonucleotide.

Data set [9] deals with Trypanosoma 9 and 11 chromosomic sequence FTrypBT (FEBR1T) G-quadruplex. Kind of data set: FRET melting experiments, FtrypBT. The data set is classed as binding, T. brucei brucei. To be noted: 2 μM compound, 0.2 μM oligonucleotide, K+ conditions. As for the experimental part: (§2) These were performed with dual-labelled oligonucleotides mimicking the Plasmodium telomeric sequences FPf1T [FAM-5′(GGGTTTA)3-GGG3′-TAMRA] and FPf8T [FAM-5′ (GGGTTCA)3GGG3′-TAMRA], the Trypanosoma 9 and 11 chromosomic sequence FTrypBT (also named FEBR1T) [FAM-5′[…]3′-TAMRA], the human telomeric sequence F21T [FAM-(GGGTTA)3-GGG3′-TAMRA], and the human duplex sequence FdxT [FAM5′-[…]-hexaethyleneglycol-[…]3′-TAMRA][51]^,[52]. The oligonucleotides were pre-folded in 10 mM lithium cacodylate buffer (pH 7.2), with 10 mM KCl and 90 mM LiCl (K^+condition). The FAM emissions were recorded at 516 nm using a 492-nm excitation wavelength in the absence and presence of a single compound as a function of temperature (25–95 °C) in 96-well microplates by using a Stratagene MX3000P real-time PCR device at a rate of 1 °C·min^−1. Data were normalised between 0 and 1, and the required temperature for half-denaturation of oligonucleotides corresponding to the emission value of 0.5 was taken as the Tm. […] For each compound, three independent experiments were carried out.

Data set [10] relates to P. falciparum CQ-sensitive strain 3D7. Description: In vitro antiplasmodial activity, SYBR Green I fluorescence-based method, strain 3D7. It counts as cell-based. To be noted: Plasmodium falciparum; chloroquine-sensitive strain 3D7; 48 h incubation; read-out: P. falciparum strains IC50 values, 3D7. A digest of the protocol:
(§3)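 P. falciparum 3D7 and W2 cultured in human erythrocytes in RPMI with 0.5% Albumax I at 37 °C, exposed 48 h to compounds tested […]. Parasite DNA read by SYBR Green I fluorescence (ex 485/em 535 nm); IC50 by non-linear regression, mean of three independent experiments.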

In data set [11] the test system is human duplex sequence FdxT. Kind of data set: FRET melting experiments, FdxT duplex control. The data set is classed as binding. To be noted: 2 μM compound, 0.2 μM oligonucleotide, K+ conditions. The procedure:
as §2

The subject of data set [12] is P. falciparum CQ-resistant strain W2. Description: In vitro antiplasmodial activity, SYBR Green I fluorescence-based method, strain W2. The data set is classed as cell-based. To be noted: Plasmodium falciparum; chloroquine-resistant strain W2; 48 h incubation; read-out: P. falciparum strains IC50 values, W2. In short, it runs like this: as §3
The test system of data set [13] is Plasmodium telomeric sequence FPf8T G-quadruplex. Kind of data set: FRET melting experiments, FPf8T. The data set is classed as binding, P. falciparum. To be noted: 2 μM compound, 0.2 μM oligonucleotide, K+ conditions. The procedure:
as §2

Data set [14] is described as follows: Cytotoxicity evaluation, MTT. The data set is classed as cell-based, human. To be noted: human. A digest of the protocol:
as §1

Data set [15] concerns human telomeric sequence F21T G-quadruplex. Description: FRET melting experiments, F21T. The data set is classed as binding. To be noted: 2 μM compound, 0.2 μM oligonucleotide, K+ conditions. The procedure:
as §2

In data set [16] the test system is Plasmodium telomeric sequence FPf1T G-quadruplex. Description: FRET melting experiments, FPf1T. The data set is classed as binding, P. falciparum. To be noted: 2 μM compound, 0.2 μM oligonucleotide, K+ conditions. The procedure:
as §2

Structures are written as SMILES. A value given as a limit tells only on which side of the number the result lay.

As to `c1cc(CNCCN2CCOCC2)cc(-c2nc(-c3cccc(CNCCN4CCOCC4)c3)c3ccccc3n2)c1`, the shift in melting temperature (ΔTm) in data set [1] turned out to be 0.1 ± 0.1 °C; in [2], 0.6 ± 0.1 °C; in data set [3], 0.5 ± 0.4 °C; in [4] it was 0.5 ± 0.3 °C.

For `N=C(N)c1ccc(OCCCCCOc2ccc(C(=N)N)cc2)cc1` [Pentamidine, reference compound], the half-inhibitory concentration (IC50) in [5] was 0.2 ± 0.06 nM; in data set [6] it was 5500 ± 800 nM. The CC50 in data set [7] is 2300 ± 500 nM.

On to `COc1ccc2nc(-c3ccc(CNCCCCN(C)C)cc3)nc(-c3ccc(CNCCCCN(C)C)cc3)c2c1`, for which the ΔTm in [4] worked out at 19.8 ± 0.6 °C.

In the case of `COc1ccc2c(-c3ccc(CNCCCCN(C)C)cc3)nc(-c3ccc(CNCCCCN(C)C)cc3)cc2c1`, the ΔTm in data set [1] was found to be 23.2 ± 0.6 °C.

Take `COc1ccc2cc(-c3ccc(CNCCCCN(C)C)cc3)nc(-c3ccc(CNCCCCN(C)C)cc3)c2c1`: the ΔTm turned out to be 22.2 ± 0.1 °C in data set [1]; 24.0 ± 0.3 °C in [2]; 26.6 ± 0.2 °C in data set [3]; 27.3 ± 1.1 °C in data set [4]; 4.1 ± 0.3 °C in data set [8].

In the case of `COc1ccc2nc(-c3ccc(CNCCCCN(C)C)cc3)nc(-c3ccc(CNCCCCN(C)C)cc3)c2c1` [Compound 3h, 6-Methoxy-2,4-bis{4-[(4-dimethylaminobutyl)aminomethyl]phenyl}quinazoline], the “ΔTm FtrypBT” value in data set [9] turned out to be 15.7 ± 0.3 °C. The 50% inhibitory concentration (IC50) was 3840 ± 380 nM in data set [10], 270 ± 35 nM in data set [5], not below 10000 nM in data set [6] and 3680 ± 500 nM in data set [12]. Further, the “ΔTm FdxT” value in data set [11] was 2.0 ± 0.2 °C. Moreover, in [13], the “ΔTm FPf8T” value was found to be 18.8 ± 0.7 °C. Besides, the CC50 at 72 h in data set [14] came to 11700 ± 1200 nM. Further, in data set [15], the “ΔTm F21T” value came out at 16.4 ± 1.3 °C. Further, the “ΔTm FPf1T” value in [16] amounted to 19.8 ± 0.6 °C.

`COc1ccc2c(-c3ccc(CNCCCCN(C)C)cc3)nc(-c3ccc(CNCCCCN(C)C)cc3)nc2c1` [Compound 3m, 7-Methoxy-2,4-bis{4-[(4-dimethylaminobutyl)aminomethyl]phenyl}quinazoline]: the “ΔTm FtrypBT” value in [9] is 13.8 ± 0.5 °C. Also, the IC50 was 1180 ± 430 nM in [10], 750 ± 60 nM in [5], not below 10000 nM in [6] and 4220 ± 550 nM in data set [12]. Moreover, the “ΔTm FdxT” value in [11] was determined as 1.7 ± 0.3 °C. Moreover, in data set [13], the “ΔTm FPf8T” value is 17.8 ± 0.5 °C. Moreover, the 50% cytotoxic concentration (CC50) at 72 h in data set [14] is 25100 ± 1200 nM. Besides, the “ΔTm F21T” value in [15] came out at 19.4 ± 0.4 °C. Further, in data set [16], the “ΔTm FPf1T” value was determined as 18.3 ± 0.7 °C.

Consider `COc1ccc2cc(-c3ccc(CNCCCN(C)C)cc3)nc(-c3ccc(CNCCCN(C)C)cc3)c2c1` [Compound 2f, 7-Methoxy-1,3-bis{4-[(3-dimethylaminopropyl)aminomethyl]phenyl}isoquinoline], for which, in data set [9], the “ΔTm FtrypBT” value turned out to be 16.9 ± 1.1 °C. The IC50 in data set [10] was 1470 ± 240 nM; in data set [5], 520 ± 72 nM; in data set [6] it was not below 10000 nM; in [12], 4760 ± 660 nM. Moreover, in [11], the “ΔTm FdxT” value turned out to be 0.8 ± 0.3 °C. In addition, the “ΔTm FPf8T” value in [13] is 18.5 ± 0.5 °C. The CC50 at 72 h in [14] was determined as 2120 ± 200 nM. The “ΔTm F21T” value in data set [15] was 15.8 ± 0.1 °C. Further, the “ΔTm FPf1T” value in data set [16] is 20.3 ± 1.1 °C.

In the case of `CN1CCN(CCNCc2ccc(-c3cc(-c4ccc(CNCCN5CCN(C)CC5)cc4)c4ccccc4n3)cc2)CC1` [Compound 1f, 2,4-Bis{4-[(2–(4-methylpiperazin-1-yl)ethyl)aminomethyl]phenyl}quinoline], the “ΔTm FtrypBT” value in data set [9] stood at 9.4 ± 0.6 °C. Moreover, the 50% inhibitory concentration (IC50) is 2420 ± 270 nM in data set [10], 990 ± 132 nM in [5], not below 10000 nM in [6] and 130 ± 24 nM in [12]. Also, the “ΔTm FdxT” value in data set [11] was −0.1 ± 0.2 °C. Further, the “ΔTm FPf8T” value in data set [13] was 11.0 ± 0.5 °C. Besides, in data set [14], half-maximal cytotoxicity (CC50 at 72 h) was put at 4090 ± 300 nM. The “ΔTm F21T” value in [15] came to 9.5 ± 2.9 °C. Besides, the “ΔTm FPf1T” value in data set [16] was 10.7 ± 1.0 °C.

For orientation: ΔTm means the change in melting temperature against a reference sample. The term IC50 denotes the point on the concentration scale where inhibition reaches its midpoint. The term CC50 denotes the concentration that lowers cell viability or growth by half. High values mean lower toxicity to the cells, low ones greater toxicity to the cells.

For the origin of these results see article PMC6968685 (Journal of Enzyme Inhibition and Medicinal Chemistry, 2020).
